The assay has as its target T1, human TRPA1 (Homo sapiens, UniProt O75762).
T1 construct: full-length human TRPA1 gene was amplified; expressed in transfected cells; host or cells: Human embryonic kidney-derived 293T cells, transient transfection with pcDNA3.1/zeo(+) human TRPA1 expression plasmid
Kind of assay: Measurement of TRPA1 antagonist activity (intracellular calcium increase, allylisothiocyanate stimulation, 293T cells transfected with human TRPA1 expression plasmid). Format: cell-based. Conditions: 293T cells expressing human TRPA1, allylisothiocyanate stimulation, FLIPR Calcium4, test substance added 10 min before AITC, read-out: hTRPA1 IC50. The procedure:
Experimental Example 1: Measurement of TRPA1 antagonist Activity
Human TRPA1 Expression Plasmid
Using cDNA encoding human TRPA1 (GenBank accession No. NM_007332) (manufactured by Kazusa DNA Research Institute, item No.: FHC07217) as a template, primer 1 (SEQ ID NO: 1) and primer 2 (SEQ ID NO: 2), PCR by PfuUltra High-Fidelity DNA Polymerase (Stratagene) was performed, and full-length human TRPA1 gene was amplified.
A recognition site (underlined) of restriction enzyme HindIII was added to the 5′ end of human TRPA1 gene, and XbaI site (underlined) was added to the 3′ end of human TRPA1 gene, and GTT of the template sequence was changed to termination codon TAG (bold). The obtained double stranded DNA was enzyme-digested with HindIII and XbaI, and introduced into a multicloning site of expression plasmid pcDNA3.1/zeo(+) (manufactured by Invitrogen) to give a human TRPA1 expression plasmid.
Human embryonic kidney-derived 293T cells were cultured in Dulbecco's Modified Eagle Medium containing 10% fetal bovine serum, 10 unit penicillin, and 10 μg streptomycin. One day before assay, 3×10^6 of 293T cells were plated on a petri dish having a diameter of 10 cm, and cultured in a CO2 incubator for 24 hr. OPTI-MEM I Reduced Serum Media (Invitrogen). (600 μL), Mirus TransIT-293 (Mirus Bio) (18 μL), and human TRPA1 expression plasmid (6 μg) were mixed, the total amount of the mixture was added to the cells on the petri dish to allow for gene transfer. The cells were recovered about for 8 hr later, plated on a poly-D-lysine coated 384 well black/clear bottom plate at 12,000 cells/well, and cultured overnight.
Measurement of Intracellular Calcium Increase
The medium was removed from the 384 well plate, calcium indicator (Molecular Device, trade name: FLIPR Calcium4 Assay Kit) dissolved in HBSS (Thermo Fisher Scientific) (pH 7.2) containing 20 mM HEPES was added (38 μL/well), and the cells were stained in a CO2 incubator for 1 hr. The 384 well plate was stood at room temperature for not less than 15 min, set on FDSS7000 (Hamamatsu Photonics K.K.), and a test substance solution was added at 10 μL/well. After 10 min, allylisothiocyanate solution (12 μL/well) was added, the relative fluorescence intensity was measured for 5 min after addition of the allylisothiocyanate solution.
Preparation of Test Substance Solution and Allylisothiocyanate Solution
A test substance solution was prepared to have a composition of HBSS (Thermo Fisher Scientific) (pH 7.2) containing 0.48% dimethyl sulfoxide, a test substance at 4.8-fold concentration of the evaluation concentration, 0.1% bovine serum albumin and 20 mM HEPES. An allylisothiocyanate solution was prepared to have a composition of HBSS (Thermo Fisher Scientific) (pH 7.2) containing 0.1% dimethyl sulfoxide, 100 μM allylisothiocyanate, 0.1% bovine serum albumin and 20 mM HEPES.
Calculation of Antagonist Activity
The activity rate of a test substance at each concentration was calculated, wherein the relative fluorescence intensity change of a well free of a test substance and containing allylisothiocyanate is 100% activity rate, and the relative fluorescence intensity change of a well free of a test substance and allylisothiocyanate is 0% activity rate. The inhibitory rate of a test substance at each concentration was calculated by subtracting the activity rate of the test substance from 100% activity rate, and the concentration of a test substance showing 50% inhibitory rate was calculated as IC50 from the sigmoid approximate curve by XLFit (idbs).
For orientation: Calcium assays in cells follow changes in intracellular calcium, usually with a dye or a luminescent sensor.

Setting [1] is: Comparative Examples (Table 8-2).

Where two headings read alike, the source gives them in different places.

T1 sequence (O75762 whole entry): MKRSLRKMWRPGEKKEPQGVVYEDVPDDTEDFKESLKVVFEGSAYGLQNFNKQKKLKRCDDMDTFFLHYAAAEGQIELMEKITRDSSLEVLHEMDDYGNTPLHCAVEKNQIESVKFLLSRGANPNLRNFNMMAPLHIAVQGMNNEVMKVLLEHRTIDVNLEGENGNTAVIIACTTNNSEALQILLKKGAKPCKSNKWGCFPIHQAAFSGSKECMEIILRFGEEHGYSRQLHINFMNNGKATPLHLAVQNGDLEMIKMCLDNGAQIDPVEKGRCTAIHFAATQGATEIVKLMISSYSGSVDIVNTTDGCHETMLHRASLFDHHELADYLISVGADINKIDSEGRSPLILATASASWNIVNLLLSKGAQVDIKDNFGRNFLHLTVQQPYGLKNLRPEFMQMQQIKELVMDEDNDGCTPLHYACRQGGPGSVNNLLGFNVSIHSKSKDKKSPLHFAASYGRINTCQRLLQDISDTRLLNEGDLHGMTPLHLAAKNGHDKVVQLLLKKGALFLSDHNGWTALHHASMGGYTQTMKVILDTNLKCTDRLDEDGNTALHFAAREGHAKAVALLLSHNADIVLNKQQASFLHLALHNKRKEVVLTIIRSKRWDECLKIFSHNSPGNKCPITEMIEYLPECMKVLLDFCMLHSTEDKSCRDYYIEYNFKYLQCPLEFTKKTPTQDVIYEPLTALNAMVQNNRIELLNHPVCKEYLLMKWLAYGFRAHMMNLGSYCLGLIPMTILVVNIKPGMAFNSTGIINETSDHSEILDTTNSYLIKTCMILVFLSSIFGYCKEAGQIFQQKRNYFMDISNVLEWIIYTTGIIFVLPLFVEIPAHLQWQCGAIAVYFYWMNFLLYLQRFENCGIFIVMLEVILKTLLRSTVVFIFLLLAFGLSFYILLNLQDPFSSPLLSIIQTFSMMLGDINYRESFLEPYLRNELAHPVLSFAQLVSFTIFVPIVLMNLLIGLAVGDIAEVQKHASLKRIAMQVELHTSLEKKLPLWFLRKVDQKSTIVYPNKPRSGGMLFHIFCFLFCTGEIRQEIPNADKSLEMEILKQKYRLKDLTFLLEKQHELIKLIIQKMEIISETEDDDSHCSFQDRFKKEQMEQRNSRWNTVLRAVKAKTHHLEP

As a reminder, the IC50 is the concentration that gives 50% inhibition. In the case of `CC(C)N(C1(C(=O)NCc2cc(-c3ccc(C(F)(F)F)nc3)ncn2)CC1)S(=O)(=O)c1ccc(F)cc1` [Comparative Example 1, 1-[(4-fluorophenyl)sulfonyl-isopropyl-amino]-N-[[6-[6-(trifluoromethyl)-3-pyridyl]pyrimidin-4-yl]methyl]cyclopropanecarboxamide, reference compound], under setting [1], the IC50 was determined as 180 nM.

Consider `O=C(NCc1cc(-c2ccc(C(F)(F)F)cc2)nc(N2CCCC2)c1)C1(NS(=O)(=O)c2ccc(F)cc2)CC1` [Comparative Example 2, 1-[(4-fluorophenyl)sulfonylamino]-N-[[2-pyrrolidin-1-yl-6-[4-(trifluoromethyl)phenyl]-4-pyridyl]methyl]cyclopropanecarboxamide, reference compound], for which the IC50 under setting [1] is more than 1000 nM.

In the case of `O=C(NCc1cc(-c2ccc(C(F)(F)F)cc2)nc(N2CCCC2)c1)C1(NS(=O)(=O)c2ccco2)CC1` [Comparative Example 3, 1-(2-furylsulfonylamino)-N-[[2-pyrrolidin-1-yl-6-[4-(trifluoromethyl)phenyl]-4-pyridyl]methyl]cyclopropanecarboxamide, reference compound], the IC50 under setting [1] is more than 1000 nM.

As to `O=C(NCc1cc(-c2ccc(C(F)(F)F)cc2)nc(N2CCCC2)c1)C1(NS(=O)(=O)c2ccc(Cl)s2)CC1` [Comparative Example 4, 1-[(5-chloro-2-thienyl)sulfonylamino]-N-[[2-pyrrolidin-1-yl-6-[4-(trifluoromethyl)phenyl]-4-pyridyl]methyl]cyclopropanecarboxamide, reference compound], the IC50 under setting [1] was more than 1000 nM.

As to `O=C(NCc1cc(-c2ccc(C(F)(F)F)cc2)ncn1)C1(NS(=O)(=O)c2cc3cc(F)ccc3o2)CC1` [Example 1, 1-[(5-fluorobenzofuran-2-yl)sulfonylamino]-N-[[6-[4-(trifluoromethyl)phenyl]pyrimidin-4-yl]methyl]cyclopropanecarboxamide], where the note is “Examples (Table 8-1)”, the IC50 came to 33 nM.

For `O=C(NCc1ccnc(-c2cnc(C(F)(F)F)nc2)c1)C1(NS(=O)(=O)c2cc3cc(F)ccc3o2)CC1` [Example 2, 1-[(5-fluorobenzofuran-2-yl)sulfonylamino]-N-[[2-[2-(trifluoromethyl)pyrimidin-5-yl]-4-pyridyl]methyl]cyclopropane-carboxamide], the IC50 (Examples (Table 8-1)) is 120 nM.

Turning to `O=C(NCc1ccnc(-c2ccc(C(F)(F)F)cc2O)c1)C1(NS(=O)(=O)c2cc3cc(F)ccc3o2)CC1` [Example 3, 1-[(5-fluorobenzofuran-2-yl)sulfonylamino]-N-[[2-[2-hydroxy-4-(trifluoromethyl)phenyl]-4-pyridyl]methyl]cyclopropane-carboxamide], where the note is “Examples (Table 8-1)”, the IC50 is 72 nM.

For the compound `O=C(NCc1cc(-c2ccc(C(F)(F)F)cn2)ccn1)C1(NS(=O)(=O)c2cc3cc(F)ccc3o2)CC1` [Example 4, 1-[(5-fluorobenzofuran-2-yl)sulfonylamino]-N-[[4-[5-(trifluoromethyl)-2-pyridyl]-2-pyridyl]methyl]cyclopropane-carboxamide], the IC50 (Examples (Table 8-1)) amounted to 22 nM.

`O=C(NCc1cc(-c2cnc(C(F)(F)F)nc2)ccn1)C1(NS(=O)(=O)c2cc3cc(F)ccc3o2)CC1` [Example 5, 1-[(5-fluorobenzofuran-2-yl)sulfonylamino]-N-[[4-[2-(trifluoromethyl)pyrimidin-5-yl]-2-pyridyl]methyl]cyclopropane-carboxamide]: the IC50 (Examples (Table 8-1)) is 260 nM.

As for `O=C(NCc1cc(-c2ncc(C(F)(F)F)cn2)ccn1)C1(NS(=O)(=O)c2cc3cc(F)ccc3o2)CC1` [Example 6, 1-[(5-fluorobenzofuran-2-yl)sulfonylamino]-N-[[4-[5-(trifluoromethyl)pyrimidin-2-yl]-2-pyridyl]methyl]cyclopropane-carboxamide], the IC50 (Examples (Table 8-1)) turned out to be 230 nM.

As for `O=C(NCc1cc(-c2cnc(C(F)(F)F)cn2)ccn1)C1(NS(=O)(=O)c2cc3cc(F)ccc3o2)CC1` [Example 7, 1-[(5-fluorobenzofuran-2-yl)sulfonylamino]-N-[[4-[5-(trifluoromethyl)pyrazin-2-yl]-2-pyridyl]methyl]cyclopropane-carboxamide], under “Examples (Table 8-1)”, the IC50 turned out to be 170 nM.

On to `O=C(NCc1cc(-c2ccc(C(F)(F)F)nn2)ccn1)C1(NS(=O)(=O)c2cc3cc(F)ccc3o2)CC1` [Example 8, 1-[(5-fluorobenzofuran-2-yl)sulfonylamino]-N-[[4-[6-(trifluoromethyl)pyridazin-3-yl]-2-pyridyl]methyl]cyclopropane-carboxamide], for which, for the setting “Examples (Table 8-1)”, the IC50 was determined as 74 nM.

On to `O=C(NCc1cncc(-c2ccc(C(F)(F)F)nc2)c1)C1(NS(=O)(=O)c2cc3cc(F)ccc3o2)CC1` [Example 9, 1-[(5-fluorobenzofuran-2-yl)sulfonylamino]-N-[[5-[6-(trifluoromethyl)-3-pyridyl]-3-pyridyl]methyl]cyclopropane-carboxamide], for which the IC50 (Examples (Table 8-1)) is 170 nM.

Turning to `O=C(NCc1cncc(-c2ccc(C(F)(F)F)cn2)c1)C1(NS(=O)(=O)c2cc3cc(F)ccc3o2)CC1` [Example 10, 1-[(5-fluorobenzofuran-2-yl)sulfonylamino]-N-[[5-[5-(trifluoromethyl)-2-pyridyl]-3-pyridyl]methyl]cyclopropane-carboxamide], the IC50 (Examples (Table 8-1)) turned out to be 110 nM.

Turning to `O=C(NCc1cc(-c2ccc(OC(F)(F)F)cc2)ncn1)C1(NS(=O)(=O)c2cc3cc(F)ccc3o2)CC1` [Example 11, 1-[(5-fluorobenzofuran-2-yl)sulfonylamino]-N-[[6-[4-(trifluoromethoxy)phenyl]pyrimidin-4-yl]methyl]cyclopropanecarboxamide], the IC50 (Examples (Table 8-1)) turned out to be 40 nM.

Consider `O=C(NCc1cc(-c2ccc(C(F)(F)F)nc2)ncn1)C1(NS(=O)(=O)c2cc3cc(F)ccc3o2)CC1` [Example 12, 1-[(5-fluorobenzofuran-2-yl)sulfonylamino]-N-[[6-[6-(trifluoromethyl)-3-pyridyl]pyrimidin-4-yl]methyl]cyclopropanecarboxamide], for which the IC50 (Examples (Table 8-1)) was 30 nM.

Take `O=C(NCc1cc(-c2ccc(C(F)(F)F)cn2)ncn1)C1(NS(=O)(=O)c2cc3cc(F)ccc3o2)CC1` [Example 13, 1-[(5-fluorobenzofuran-2-yl)sulfonylamino]-N-[[6-[5-(trifluoromethyl)-2-pyridyl]pyrimidin-4-yl]methyl]cyclopropanecarboxamide]: the IC50 (Examples (Table 8-1)) stood at 110 nM.

Regarding `O=C(NCc1cc(-c2cnc(C(F)(F)F)nc2)ncn1)C1(NS(=O)(=O)c2cc3cc(F)ccc3o2)CC1` [Example 14, 1-[(5-fluorobenzofuran-2-yl)sulfonylamino]-N-[[6-[2-(trifluoromethyl)pyrimidin-5-yl]pyrimidin-4-yl]methyl]cyclopropanecarboxamide], the IC50 (Examples (Table 8-1)) turned out to be 47 nM.

As to `O=C(NCc1cnnc(-c2ccc(C(F)(F)F)cc2)c1)C1(NS(=O)(=O)c2cc3cc(F)ccc3o2)CC1` [Example 15, 1-[(5-fluorobenzofuran-2-yl)sulfonylamino]-N-[[6-[4-(trifluoromethyl)phenyl]pyridazin-4-yl]methyl]cyclopropanecarboxamide], the IC50 (Examples (Table 8-1)) came to 310 nM.

Take `O=C(NCc1cnnc(-c2ccc(C(F)(F)F)nc2)c1)C1(NS(=O)(=O)c2cc3cc(F)ccc3o2)CC1` [Example 16, 1-[(5-fluorobenzofuran-2-yl)sulfonylamino]-N-[[6-[6-(trifluoromethyl)-3-pyridyl]pyridazin-4-yl]methyl]cyclopropanecarboxamide]: where the note is “Examples (Table 8-1)”, the IC50 turned out to be 990 nM.

With `O=C(NCc1cc(-c2ccc(C(F)(F)F)cn2)cnn1)C1(NS(=O)(=O)c2cc3cc(F)ccc3o2)CC1` [Example 17, 1-[(5-fluorobenzofuran-2-yl)sulfonylamino]-N-[[5-[5-(trifluoromethyl)-2-pyridyl]pyridazin-3-yl]methyl]cyclopropanecarboxamide], the IC50 (Examples (Table 8-1)) is 240 nM.

Source of the values: patent publication US20180162844A1, “CYCLOPROPANE DERIVATIVE AND DRUG CONTAINING SAME” (EA PHARMA CO., LTD., priority 2015, published 2018).
